The experiment has as its target Human TAAR 1 (Homo sapiens, UniProt Q96RJ0). The experiment in a line: cAMP Biotrak EIA functional assay in HEK293 cells stably expressing hTAAR1. It counts as cell-based. As to conditions: for Emax: HEK293, read-out: Max (maximal response as percentage of the maximal cAMP levels induced by p-TYR).
Setting [1] is: cAMP production in HEK293 cells stably expressing human TAAR 1 (chimera with rat TAAR 1 N-/C-terminus and 3rd intracellular loop, HA leader), means of at least three independent experiments.

Like-named read-outs stand apart in the source and are kept apart here.

Sequence of Human TAAR 1 (Q96RJ0 with tags, fused parts or gaps): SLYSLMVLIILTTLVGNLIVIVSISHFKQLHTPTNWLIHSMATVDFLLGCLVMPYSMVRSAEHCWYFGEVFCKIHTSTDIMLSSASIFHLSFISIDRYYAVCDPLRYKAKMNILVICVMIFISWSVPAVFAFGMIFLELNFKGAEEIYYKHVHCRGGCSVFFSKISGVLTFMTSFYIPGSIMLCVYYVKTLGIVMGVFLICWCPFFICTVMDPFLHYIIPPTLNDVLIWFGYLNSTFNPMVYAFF
Sequence of Human TAAR 1 (Q923Y9 with tags, fused parts or gaps partner): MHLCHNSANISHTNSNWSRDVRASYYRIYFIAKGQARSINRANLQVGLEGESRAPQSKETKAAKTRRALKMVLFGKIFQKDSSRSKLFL

As for `NCCc1ccc(O)cc1` [p-TYR, p-tyramine], a half-maximal response (EC50) required 1070 nM and the “Max (maximal response as percentage of the maximal cAMP levels induced by p-TYR)” value came to 100%.

In the case of `NCCc1ccccc1` [β-PEA, β-phenylethylamine], the Emax was determined as 100%. The response under setting [1] was half-maximal at 300 nM (EC50).

`NC[C@H](O)c1ccc(O)c(O)c1` [Norepinephrine, norepinephrine] showed a half-maximal effective concentration (EC50) under setting [1] of over 50000 nM.

In the case of `NCCc1ccc(O)c(O)c1` [Dopamine, dopamine], the Emax was 50%.

For the compound `NCC(O)c1ccc(O)cc1` (stereo not shown) [OCT, octopamine], the Emax is 100%. Further, the midpoint of the response under setting [1], the EC50, lay at 10300 nM.

Take `CNCCc1ccccc1` [N-methyl-β-PEA]: the “Max (maximal response as percentage of the maximal cAMP levels induced by p-TYR)” value was 100%. Besides, the EC50 under setting [1] was 160 nM.

For `CNCCc1ccc(O)cc1` [N-methyl-p-tyramine], the “Max (maximal response as percentage of the maximal cAMP levels induced by p-TYR)” value is reported as 100%. For the same compound, the EC50 under setting [1] turned out to be 2050 nM.

The compound `NCCc1c[nH]cn1` [Histamine, histamine] yielded a half-maximal effective concentration (EC50) under setting [1] of over 50000 nM.

For `NCCc1c[nH]c2ccc(O)cc12` [Serotonin, 5-HT, Serotonin], the EC50 under setting [1] is over 50000 nM.

On to `NCCc1c[nH]c2ccccc12` [TRY, tryptamine], for which the Emax came out at 100%. The compound further registered a concentration giving a half-maximal response (EC50) under setting [1] of 46900 nM.
